Data on one compound can be found in PMC9321718 (Pharmaceuticals, 2022).

On the set-up of data set [1]: method as in PMID 20214546. The settings on record: host:guest molar ratio of 1:1; cited from earlier work.
For data set [2], the system named is E. coli. Details: method as in PMID 20214546. The settings on record: EG in the form of a complex with CD; cited from earlier work.
A short description of data set [3]: Solid-phase FTIR microscopy of the EG–HPCD complex (distribution of EE). The settings on record: EG–HPCD complex in solid form. It is filed as physicochemical. From the text:
To level the overlap of bond fluctuations in water molecules and the effect of hydration, the spectra of the EG–HPCD complex in solid form were registered as complementary materials (Figure S6). There are characteristic peaks of EG, which were quenched in the aqueous phase, C–Carom and C=C of the ethylene group. In the solid phase, we observed peaks corresponding to the stretching oscillations of CH2, CH3 groups (2900–3000 cm^−^1) and O-H (3200–3500 cm^−^1) without solvent contribution. […] EG was effectively (EE > 70%) included in two-thirds of the sample by quantity, in the remaining part EE exceeded 25–35%.
ATR-FTIR spectra of samples’ solutions (point 3.3.1) were recorded using a Bruker Tensor 27 spectrometer equipped with a liquid nitrogen cooled MCT (mercury cadmium telluride) detector. Samples were placed in a thermostatic cell BioATR-II with ZnSe ATR element (Bruker, Ettlingen, Germany). The IR spectrometer was merged with a constant flow of N2 (NiGen HF-1, Clint, Italy). FTIR spectra were acquired from 900 to 3000 cm^−1 with 1 cm^−1 spectral resolution. For each spectrum, 50–70 scans were accumulated at 20 kHz scanning speed and averaged. ATR-FTIR spectra of solid samples placed on KBr glass were recorded using a Bruker Lumos II IR microscope in the region from 700 to 4000 cm^−1 with 1 cm^−1 spectral resolution with scanning in the area on average 1 × 1 microns. […]

On to `C=CCc1ccc(O)c(OC)c1` [Eugenol, 4-allyl-2-methoxyphenol], for which, in data set [1], the “initial amount of EG included in CD” value is reported as ~92% and the “mass fraction of EG in the sample” value was “about 58%”. Moreover, in data set [2], the “concentration already active in growth inhibition” value is 0.5 mg/mL. Also, in data set [3] (remaining part), the “EE in the remaining part of the sample” value is reported as 25–35%. Besides, the “EE in two-thirds of the sample” value in data set [3] (two-thirds of the sample by quantity) is reported as > 70%.
